Data published in publication PMC5081515 (Scientific Reports, 2016).
Like-named read-outs stand apart in the source and are kept apart here. One block for each compound: values may come before it.

Tests used:
Human HGPRT [1] = molecular target: Human HGPRT; set-up: method as in Cesnek et al. 19; Keough et al. 18; conditions: ref Cesnek et al. 19, Keough et al. 18; cited from earlier work
TbrHGPRT [2] = molecular target: T1, TbrHGPRT (Trypanosoma brucei brucei, UniProt Q07010); assay: Inhibition studies, Ki determination
T1 sequence (Q07010 whole entry): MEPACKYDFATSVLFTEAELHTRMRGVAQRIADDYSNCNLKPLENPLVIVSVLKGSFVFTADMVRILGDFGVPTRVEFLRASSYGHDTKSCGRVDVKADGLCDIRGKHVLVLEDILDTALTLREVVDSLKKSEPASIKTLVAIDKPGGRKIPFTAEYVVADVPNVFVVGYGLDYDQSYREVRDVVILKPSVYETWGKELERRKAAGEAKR

TbrHGPRT [3] = molecular target: T1, TbrHGPRT; assay: Kinetic constants of naturally occurring substrates, continuous spectrophotometric assay; type: biochemical; set-up: made in house; host or cells: E. coli BL-21 (DE3), pET-22b
Procedure: One unit of activity is defined as the number of μmol of purine base converted to its mononucleotide product per minute.
The kinetic constants were calculated using GraphPad Prism 6.0.

TcrHGPRT = tested on: TcrHGPRT; set-up: method as in Canyuk et al. 43; Allen & Ullman 54; conditions: cited from earlier work
Human HGPRT [4] = tested on: Human HGPRT; set-up: method as in de Jersey et al. 10; conditions: cited from earlier work
TbrHGPRT [5] = molecular target: T1, TbrHGPRT; assay: Standard enzyme activity assay with ammonium sulphate added; type: biochemical; set-up: made in house; host or cells: E. coli BL-21 (DE3), pET-22b; conditions: 2M ammonium sulphate added to the cuvette
[6] = ref Canyuk et al. 43, Allen & Ullman 54, read-out: Km
[7] = ref Canyuk et al. 43, Allen & Ullman 54
[8] = ref de Jersey et al. 10, read-out: Km

Structure (SMILES): O=c1[nH]cnc2nc[nH]c12 [Hypoxanthine]
Km, fold higher than for guanine (TbrHGPRT [3]; TbrHGPRT): 2 fold
Km (TcrHGPRT; [6]): 8.6 ± 1 µM
kcat (TcrHGPRT; [7]): 23 s⁻¹
Km (Human HGPRT [4]; [8]): 3.4 ± 1 µM
kcat (Human HGPRT [4]; ref de Jersey et al. 10): 5.2 ± 0.4 s⁻¹

Structure (SMILES): N.N.O=S(=O)(O)O [sulphate, ammonium sulphate]
inhibition (TbrHGPRT [5]): 25%

Structure (SMILES): Nc1nc2nc[nH]c2c(=O)[nH]1 [Guanine]
Km (TcrHGPRT; [6]): 9.9 ± 0.29 µM
kcat (TcrHGPRT; [7]): 41.2 ± 2.9 s⁻¹
Km (Human HGPRT [4]; [8]): 1.9 ± 0.4 µM
kcat (Human HGPRT [4]; ref de Jersey et al. 10): 8.2 ± 0.6 s⁻¹

Structure (SMILES): O=P(O)(O)OC[C@H]1O[C@H](OP(=O)(O)OP(=O)(O)O)[C@H](O)[C@@H]1O [PRib-PP]
Km (TcrHGPRT; [6]): 32.4 ± 3.1 µM
Km (Human HGPRT [4]; [8]): 59.6 ± 6 µM

Structure (SMILES): O=c1[nH]c(=O)c2nc[nH]c2[nH]1 [Xanthine]
kcat (TbrHGPRT [3]; 0.03 M phosphate buffer, […] MgCl2, 1 mM DTT, pH 7.4, 25 °C): Weak activity
Km (TbrHGPRT [3]; 0.03 M phosphate buffer, […] MgCl2, 1 mM DTT, pH 7.4, 25 °C, bases at 500 μM PRib-PP, PRib-PP at 40 μM guanine): Weak activity
activity as a substrate (TbrHGPRT [3]; TbrHGPRT): only very weak activity
Km (TcrHGPRT; [7]): No activity reported
kcat (TcrHGPRT; [7]): No activity reported
Km (Human HGPRT [4]; ref de Jersey et al. 10): Not a substrate
kcat (Human HGPRT [4]; ref de Jersey et al. 10): Not a substrate

Continued, in another order:

Ki (TbrHGPRT [2]): 15.8 ± 1.8 µM
Structure (SMILES): O=c1[nH]cnc2c1ncn2CCCCCP(=O)(O)O [Compound 6]
Ki (Human HGPRT [1]): > 100 µM

Ki (TbrHGPRT [2]; 0.03 M phosphate, […] MgCl2, 1 mM DTT, pH 7.4, 25 °C, guanine 40 μM, PRib-PP varied 20 to 630 μM): 30.5 ± 1.5 µM
Ki for GMP, fold lower than for IMP (TbrHGPRT [2]; TbrHGPRT): 2.5 fold
Ki for TbrHGPRT, fold higher than for human HGPRT (TbrHGPRT [2]; TbrHGPRT vs human HGPRT): 5 fold
Structure (SMILES): Nc1nc2c(ncn2[C@@H]2O[C@H](COP(=O)(O)O)[C@@H](O)[C@H]2O)c(=O)[nH]1 [GMP, reference compound]
Ki (Human HGPRT [1]): 5.8 ± 0.2 µM

Ki (TbrHGPRT [2]): > 100 µM
Structure (SMILES): O=c1[nH]cnc2c1ncn2CCCP(=O)(O)O [Compound 4]
Ki (Human HGPRT [1]): > 100 µM

Ki (TbrHGPRT [2]): 2.3 ± 0.1 µM
Structure (SMILES): Nc1nc2c(ncn2CCCCCP(=O)(O)O)c(=O)[nH]1 [Compound 2]
Ki (Human HGPRT [1]): 0.5 µM

Ki (TbrHGPRT [2]): > 100 µM
Structure (SMILES): O=c1[nH]cnc2c1ncn2CCCCCCP(=O)(O)O [Compound 7]
Ki (Human HGPRT [1]): 77 µM

Ki (TbrHGPRT [2]): 58.6 ± 4 µM
Structure (SMILES): O=c1[nH]cnc2c1ncn2CCCCP(=O)(O)O [Compound 5]
Ki (Human HGPRT [1]): > 100 µM

Ki (TbrHGPRT [2]): 23.7 ± 0.3 µM
Structure (SMILES): Nc1nc2c(ncn2CCCCP(=O)(O)O)c(=O)[nH]1 [Compound 1]
Ki (Human HGPRT [1]): 21 µM

Ki (TbrHGPRT [2]): 21.3 ± 0.4 µM
Structure (SMILES): Nc1nc2c(ncn2CCCCCCP(=O)(O)O)c(=O)[nH]1 [Compound 3]
Ki (Human HGPRT [1]): 0.5 µM
